Test [1] concerns the target T1, Bovine pancreatic trypsin (Bos taurus, UniProt P00760).
T1 sequence (P00760 24-246): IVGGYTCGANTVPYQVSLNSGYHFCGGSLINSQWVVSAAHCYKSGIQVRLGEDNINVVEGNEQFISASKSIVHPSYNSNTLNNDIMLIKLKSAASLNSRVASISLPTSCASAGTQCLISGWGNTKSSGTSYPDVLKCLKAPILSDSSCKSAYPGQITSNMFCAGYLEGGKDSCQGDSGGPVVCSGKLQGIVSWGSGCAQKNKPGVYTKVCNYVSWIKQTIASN
Kind of test: Steady-state kinetics of inhibitors of trypsin. It counts as biochemical. The settings on record: BOC-GRR-AMC fluorogenic substrate; for Mechanism (trypsin): mechanism of trypsin inhibition.

The next test deals with DEN2V NS2B-NS3pro. It counts as biochemical, dengue 2 virus (strain TSV01). The settings on record: mechanism of inhibition of DEN2V NS2B-NS3pro, Dynafit model selection.
For test [2], the target named is T1, Bovine pancreatic trypsin. Kind of test: Trypsin inhibition assay with chromogenic BAPNA substrate. It counts as biochemical. The settings on record: analog 100 µM, trypsin 60 µM, BAPNA 500 µM; data not shown.

This is an account of results in publication PMC3026091 (Antiviral research, 2010).

`O=C1c2c(O)ccc([N+](=O)[O-])c2C(=O)c2c([N+](=O)[O-])ccc(O)c21` [ARDP0006]: the “Mechanism (trypsin)” value in test [1] is on record as “uncompetitive trypsin inhibitor”. In test [1] (read-out: Ki2 trypsin, 50 nM trypsin), the Ki worked out at 13 ± 0.1 µM. Moreover, the Mechanism entry in the test with DEN2V NS2B-NS3pro is recorded as “competitive inhibition model”. For the same compound, the “Inhibition of trypsin cleavage of the chromogenic substrate BAPNA” value in test [2] is given as “inhibited trypsin cleavage of the fluorogenic substrate but not the chromogenic substrate”.
Turning to `N=C(N)c1ccccc1` [Benzamidine, reference compound], the “Mechanism (trypsin)” value in test [1] was “Competitive”.
